# From paper PMC7035247 (Scientific Reports, 2020)
# Read-outs that look alike come from different tables or passages of the source.
# Columns and labels:
# [1] = molecular target: T1, W(3Cyto) Pgp (W44H/W132L/W208P/W228M/W311Y/W694I/W704I/W851P) (Mus musculus, UniProt P21447, W132L/W208P/W228M/W311Y/W44H/W694I/W704I/W851P); test: biochemical
# Description: (§2) The rate of ATP hydrolysis was measured at 37 °C, by an ATPase-linked enzyme assay[87], in the absence and presence of drugs, and statistical analysis were done as described[74],[79].
# [2] = molecular target: WL-Pgp (Trp-less Pgp, all eleven Trps substituted) (Mus musculus, UniProt P21447, W1104Y/W132L/W158Y/W208P/W228M/W311Y/W44H/W694I/W704I/W799Y/W851P); test: biochemical
# Sequence of WL-Pgp (Trp-less Pgp, all eleven Trps substituted) (P21447 whole entry W44H/W132L/W158Y/W208P/W228M/W311Y/W694I/W704I/W799Y/W851P/W1104Y): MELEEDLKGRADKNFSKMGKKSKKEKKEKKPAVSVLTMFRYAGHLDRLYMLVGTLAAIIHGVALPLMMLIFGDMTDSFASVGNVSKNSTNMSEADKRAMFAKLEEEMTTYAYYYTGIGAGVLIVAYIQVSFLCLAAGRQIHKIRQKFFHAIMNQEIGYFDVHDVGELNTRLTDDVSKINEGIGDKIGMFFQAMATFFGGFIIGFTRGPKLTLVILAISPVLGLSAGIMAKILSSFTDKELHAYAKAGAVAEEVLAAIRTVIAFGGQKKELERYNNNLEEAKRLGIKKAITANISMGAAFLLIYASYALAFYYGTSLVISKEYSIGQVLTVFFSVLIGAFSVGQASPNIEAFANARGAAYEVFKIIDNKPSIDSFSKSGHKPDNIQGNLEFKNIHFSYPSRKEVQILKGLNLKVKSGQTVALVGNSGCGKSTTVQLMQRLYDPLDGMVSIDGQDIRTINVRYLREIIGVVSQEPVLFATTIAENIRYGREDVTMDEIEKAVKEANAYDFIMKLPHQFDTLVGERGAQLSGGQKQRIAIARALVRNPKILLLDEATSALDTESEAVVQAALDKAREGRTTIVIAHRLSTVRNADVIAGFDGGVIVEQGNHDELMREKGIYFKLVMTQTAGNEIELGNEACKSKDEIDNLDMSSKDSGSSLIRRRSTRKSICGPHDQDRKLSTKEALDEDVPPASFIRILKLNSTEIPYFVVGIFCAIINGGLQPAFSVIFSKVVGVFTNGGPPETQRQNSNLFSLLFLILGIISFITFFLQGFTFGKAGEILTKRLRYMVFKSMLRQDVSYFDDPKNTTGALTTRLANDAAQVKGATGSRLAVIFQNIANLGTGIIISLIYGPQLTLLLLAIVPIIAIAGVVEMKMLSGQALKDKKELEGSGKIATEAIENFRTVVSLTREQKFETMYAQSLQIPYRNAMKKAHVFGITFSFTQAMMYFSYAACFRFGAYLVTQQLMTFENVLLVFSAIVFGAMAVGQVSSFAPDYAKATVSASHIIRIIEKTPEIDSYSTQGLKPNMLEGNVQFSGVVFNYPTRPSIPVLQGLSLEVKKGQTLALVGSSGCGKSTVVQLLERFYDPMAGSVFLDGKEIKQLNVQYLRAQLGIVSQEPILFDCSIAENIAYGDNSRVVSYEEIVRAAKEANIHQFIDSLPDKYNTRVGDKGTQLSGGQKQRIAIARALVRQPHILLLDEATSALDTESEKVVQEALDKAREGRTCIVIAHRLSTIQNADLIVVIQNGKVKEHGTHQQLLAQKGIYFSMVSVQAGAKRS
# Description: (§1) The rate of ATP hydrolysis was measured at 37 °C, by an ATPase-linked enzyme assay, in the absence and presence of drugs, and statistical analysis were done as described[74],[79]. For biophysical studies, Pgp was exchanged into SEC buffer (20 mM HEPES pH 7.4, 150 mM NaCl, 10% glycerol, 0.05% DDM,) by size exclusion chromatography (SEC) on Superdex 200 (1 × 30 cm column)[85].
# [3] = molecular target: WT Pgp (codon-optimized mouse mdr1a Pgp) (Mus musculus, UniProt P21447); test: biochemical
# Sequence of WT Pgp (codon-optimized mouse mdr1a Pgp) (P21447 whole entry): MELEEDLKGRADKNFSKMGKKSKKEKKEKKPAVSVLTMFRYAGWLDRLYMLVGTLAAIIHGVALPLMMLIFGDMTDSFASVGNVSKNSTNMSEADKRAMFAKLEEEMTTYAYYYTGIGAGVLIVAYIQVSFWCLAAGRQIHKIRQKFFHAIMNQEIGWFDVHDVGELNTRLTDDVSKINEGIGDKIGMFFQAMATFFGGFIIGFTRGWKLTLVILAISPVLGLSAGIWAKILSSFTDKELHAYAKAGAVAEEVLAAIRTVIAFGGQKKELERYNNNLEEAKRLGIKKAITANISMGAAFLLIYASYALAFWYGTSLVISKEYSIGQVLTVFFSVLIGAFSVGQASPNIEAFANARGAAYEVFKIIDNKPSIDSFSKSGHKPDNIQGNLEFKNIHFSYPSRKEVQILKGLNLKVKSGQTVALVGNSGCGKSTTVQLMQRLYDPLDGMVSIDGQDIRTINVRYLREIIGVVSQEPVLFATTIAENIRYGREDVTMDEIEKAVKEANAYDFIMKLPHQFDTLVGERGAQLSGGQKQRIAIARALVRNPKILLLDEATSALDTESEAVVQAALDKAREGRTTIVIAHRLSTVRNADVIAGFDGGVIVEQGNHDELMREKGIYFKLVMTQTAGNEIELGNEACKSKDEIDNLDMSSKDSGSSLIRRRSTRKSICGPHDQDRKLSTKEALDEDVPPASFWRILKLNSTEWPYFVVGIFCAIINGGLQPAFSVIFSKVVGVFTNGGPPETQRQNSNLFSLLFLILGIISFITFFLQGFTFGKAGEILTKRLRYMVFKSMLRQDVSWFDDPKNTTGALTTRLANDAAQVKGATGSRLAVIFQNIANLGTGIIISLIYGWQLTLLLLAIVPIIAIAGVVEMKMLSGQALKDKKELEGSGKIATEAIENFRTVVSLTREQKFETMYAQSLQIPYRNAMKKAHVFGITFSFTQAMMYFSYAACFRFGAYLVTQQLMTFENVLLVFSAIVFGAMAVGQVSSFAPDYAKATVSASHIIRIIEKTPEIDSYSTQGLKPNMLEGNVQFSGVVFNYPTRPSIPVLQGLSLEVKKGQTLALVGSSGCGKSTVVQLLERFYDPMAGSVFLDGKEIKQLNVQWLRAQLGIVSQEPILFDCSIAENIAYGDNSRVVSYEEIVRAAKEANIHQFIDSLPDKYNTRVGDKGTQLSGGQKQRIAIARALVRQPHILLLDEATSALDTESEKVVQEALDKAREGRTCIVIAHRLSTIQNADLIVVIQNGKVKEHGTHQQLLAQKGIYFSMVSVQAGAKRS
# Description: as §1
# [4] = molecular target: T1, W(3Cyto) Pgp (W44H/W132L/W208P/W228M/W311Y/W694I/W704I/W851P); conditions: read-out: Km(MgATP), in the presence of 30 μM verapamil
# Description: as §2
# [5] = system: S. cerevisiae JPY201 expressing Pgp variants; conditions: 30 µM doxorubicin
# Description: Cultures of the transformants were screened again for mating efficiency. […] DNA from the 72 unique mutants was again re-transformed into JPY201 yeast cells for more detailed in vivo functional analysis of fungicidal drug resistance and yeast mating efficiency, which were performed essentially as previously described[74],[79],[84].
# [6] = EC50 (concentration required for 50% stimulation of the ATPase activity), WT Pgp, mean ± SD
# T1 sequence (P21447 whole entry W44H/W132L/W208P/W228M/W311Y/W694I/W704I/W851P): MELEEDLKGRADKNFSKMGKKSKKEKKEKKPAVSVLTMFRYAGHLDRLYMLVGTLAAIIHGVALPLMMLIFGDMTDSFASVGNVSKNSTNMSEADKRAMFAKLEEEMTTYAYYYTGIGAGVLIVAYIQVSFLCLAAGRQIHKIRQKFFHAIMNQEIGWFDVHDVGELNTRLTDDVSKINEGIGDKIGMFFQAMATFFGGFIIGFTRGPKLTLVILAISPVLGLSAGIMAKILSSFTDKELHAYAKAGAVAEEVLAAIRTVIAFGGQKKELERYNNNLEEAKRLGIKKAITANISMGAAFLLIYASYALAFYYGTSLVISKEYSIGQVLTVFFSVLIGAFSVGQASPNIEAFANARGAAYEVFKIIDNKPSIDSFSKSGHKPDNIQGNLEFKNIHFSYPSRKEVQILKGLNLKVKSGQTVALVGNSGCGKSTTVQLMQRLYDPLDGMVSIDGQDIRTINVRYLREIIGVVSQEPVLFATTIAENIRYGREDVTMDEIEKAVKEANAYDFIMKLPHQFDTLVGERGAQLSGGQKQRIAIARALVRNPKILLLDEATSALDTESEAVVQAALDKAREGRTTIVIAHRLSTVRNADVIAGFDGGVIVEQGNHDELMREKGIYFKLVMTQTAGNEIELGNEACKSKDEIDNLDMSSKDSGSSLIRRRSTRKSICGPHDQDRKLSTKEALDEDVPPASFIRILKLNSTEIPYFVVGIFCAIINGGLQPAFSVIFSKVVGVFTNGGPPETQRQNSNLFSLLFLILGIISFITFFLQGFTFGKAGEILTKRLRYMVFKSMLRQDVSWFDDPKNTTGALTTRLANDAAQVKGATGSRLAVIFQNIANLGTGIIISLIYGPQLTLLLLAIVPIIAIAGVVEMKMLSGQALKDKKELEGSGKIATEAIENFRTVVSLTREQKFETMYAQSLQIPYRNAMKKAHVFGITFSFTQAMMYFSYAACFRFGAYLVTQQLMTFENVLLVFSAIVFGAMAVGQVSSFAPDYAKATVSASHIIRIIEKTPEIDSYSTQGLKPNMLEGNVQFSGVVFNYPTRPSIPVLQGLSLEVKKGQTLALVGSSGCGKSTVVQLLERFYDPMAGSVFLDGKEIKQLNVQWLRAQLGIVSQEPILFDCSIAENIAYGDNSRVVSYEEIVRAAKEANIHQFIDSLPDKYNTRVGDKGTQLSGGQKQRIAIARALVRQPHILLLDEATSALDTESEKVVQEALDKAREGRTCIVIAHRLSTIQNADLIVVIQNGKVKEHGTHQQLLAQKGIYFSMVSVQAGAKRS
SMILES,EC50 [1] [nM],EC50 [2] [nM],"EC50 [3, 6] [nM]",other results
C=CC[C@@H]1/C=C(\C)C[C@H](C)C[C@H](OC)[C@H]2O[C@@](O)(C(=O)C(=O)N3CCCC[C@H]3C(=O)O[C@H](/C(C)=C/[C@@H]3CC[C@@H](O)[C@H](OC)C3)[C@H](C)[C@@H](O)CC1=O)[C@H](C)C[C@@H]2OC [FK506],140 ± 30,160 ± 40,84 ± 30,
Nc1ncnc2c1ncn2[C@@H]1O[C@H](COP(=O)(O)OP(=O)(O)OP(=O)(O)O)[C@@H](O)[C@H]1O [MgATP],,,,"Km [4]: 400 ± 70 µM; Km ([2]; read-out: Km(MgATP), WL-Pgp, in the presence of 30 μM verapamil, text says mM range): 0.65 ± 0.07 mM; Km ([3]; read-out: Km(MgATP), WT Pgp, in the presence of 30 μM verapamil, text says mM range): 0.75 ± 0.2 mM"
"CC(C)[C@@H]1NC(=O)[C@H](C)OC(=O)[C@@H](C(C)C)NC(=O)[C@@H](C(C)C)OC(=O)[C@H](C(C)C)NC(=O)[C@H](C)OC(=O)[C@@H](C(C)C)NC(=O)[C@@H](C(C)C)OC(=O)[C@H](C(C)C)NC(=O)[C@H](C)OC(=O)[C@@H](C(C)C)NC(=O)[C@@H](C(C)C)OC1=O [Valinomycin, valinomycin]",230 ± 30,340 ± 90,330 ± 80,"EC50 ([3]; 50% stimulation (EC50) of ATPase function, text summary across Wt Pgp, W(3Cyto) and WL-Pgp): ~300 nM"
COc1cccc2c1C(=O)c1c(O)c3c(c(O)c1C2=O)C[C@@](O)(C(=O)CO)C[C@@H]3O[C@H]1C[C@H](N)[C@H](O)[C@H](C)O1 [doxorubicin],,,,Resistance to doxorubicin (relative to Wt Pgp) ([5]; yeast expressing mutant B (W(3Cyto))): 52 ± 14%; Resistance to doxorubicin (relative to Wt Pgp) ([5]; yeast expressing mutant C (eight TMD Trps replaced)): 43 ± 13%
